# Laboratory results published in patent US9987264B2, “Method and composition for treating a serotonin receptor-mediated condition” (Vanda Pharmaceuticals Inc., priority 2007, dated 2018).
# Experiments:
# [1] = system: platelet rich plasma; test: platelet aggregation assay (ADP-induced, serotonin-potentiated); format: cell-based, albino rabbits; conditions: Oryctolagus cuniculus
# Experimental: In this assay, platelet rich plasma was obtained from albino rabbits. Platelet aggregation was induced in the presence of 3 μM adenosine diphosphate (ADP) and was potentiated by the addition of 10 μM serotonin. 4-[3-[4-(6-fluoro-1,2,-benzisoxazol-3-yl)-1-piperidinyl]propoxyl]-3-methoxy-benzoic acid inhibited the platelet aggregation in the presence of serotonin within 5 minutes, by 30, 50, 60, and 79% at the concentrations of 6 μM, 60 μM, 0.6 mM, and 1 mM, respectively.
# [2] = target: human 5HT2A receptor (Homo sapiens, UniProt P28223); test: radioligand binding study, human 5HT2A receptor
# Chain of human 5HT2A receptor (P28223 whole entry): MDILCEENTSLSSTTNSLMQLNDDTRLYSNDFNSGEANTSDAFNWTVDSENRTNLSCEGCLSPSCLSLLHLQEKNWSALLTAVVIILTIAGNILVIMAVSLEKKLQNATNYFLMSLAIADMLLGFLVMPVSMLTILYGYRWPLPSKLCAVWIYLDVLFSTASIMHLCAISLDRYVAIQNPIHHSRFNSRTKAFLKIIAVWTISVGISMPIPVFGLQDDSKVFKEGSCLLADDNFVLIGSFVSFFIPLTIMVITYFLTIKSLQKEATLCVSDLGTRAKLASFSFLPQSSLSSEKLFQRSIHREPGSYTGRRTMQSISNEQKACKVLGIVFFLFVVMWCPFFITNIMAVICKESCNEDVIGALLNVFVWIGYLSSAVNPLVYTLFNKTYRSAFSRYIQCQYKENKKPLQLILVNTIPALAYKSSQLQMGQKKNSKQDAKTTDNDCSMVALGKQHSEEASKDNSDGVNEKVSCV
# From the text: In a radioligand binding study, 4-[3-[4-(6-fluoro-1,2,-benzisoxazol-3-yl)-1-piperidinyl]propoxy]-3-methoxy-benzoic acid had the following activity against the human 5HT2A receptor: […]
# [3] = DMPK studies, brain radioactivity after [14C]-labelled compound; format: in vivo; conditions: rats treated with [14C]-labelled compound
# From the text: 4-[3-[4-(6-fluoro-1,2,-benzisoxazol-3 -yl)-1-piperidinyl]propoxyl]-3-methoxy-benzoic acid appears not to cross the blood-brain barrier. Specifically, in DMPK studies using rats treated with [14C] […] Therefore, 4-[3-[4-(6-fluoro-1,2,-benzisoxazol-3-yl)-1-piperidinyl]propoxyl]-3-methoxy-benzoic acid is particularly useful in conditions that are not mediated, to a substantial degree, by receptors in the brain.
Compound,"inhibition at 6 µM ([1]; 5 min, 6 μM, 3 μM ADP + 10 μM serotonin, within 5 minutes) [%]","inhibition at 60 µM ([1]; 5 min, 60 μM, 3 μM ADP + 10 μM serotonin, within 5 minutes) [%]","inhibition at 600 µM ([1]; 5 min, 0.6 mM, 3 μM ADP + 10 μM serotonin, within 5 minutes) [%]","inhibition at 1000 µM ([1]; 5 min, 1 mM, 3 μM ADP + 10 μM serotonin, within 5 minutes) [%]",IC50 [2] [nM],Ki [2] [nM],inhibition at 0.03 µM [2] [%],nH [2],radioactivity concentrations in the brain [3],"inhibition at 100 µM ([1]; 100 μM, positive control, same conditions, read-out: inhibitory effect on platelet aggregation) [%]"
"COc1cc(C(=O)O)ccc1OCCCN1CCC(c2noc3cc(F)ccc23)CC1 [4-[3-[4-(6-fluoro-1,2,-benzisoxazol-3-yl)-1-piperidinyl]propoxy]-3-methoxy-benzoic acid]",30,50,60,79,13.7,3.91,66,1.05 +/− .091,none of the animals had measurable radioactivity concentrations in the brain,
"O=C(c1ccc(F)cc1)C1CCN(CCn2c(=O)[nH]c3ccccc3c2=O)CC1 [Ketanserin, reference compound]",,,,,,,,,,55
